Source: paper PMC6746701, “A phyB-PIF1-SPA1 kinase regulatory complex promotes photomorphogenesis in Arabidopsis” (Nature Communications, 2019)
Values belong to the molecule of their own block, whether it stands above or below them.

Columns and labels:
full-length SPA1 = target: T1, full-length SPA1 (Arabidopsis thaliana, UniProt Q9SYX2, R517E); experiment: in vitro kinase assay, autoradiogram; assay type: biochemical; settings: GST-PIF1 as co-substrate, 10 mM MgCl2, pH 7.5, 28 °C; labelled compound (gamma-32P)
T1 construct: full length, strep-tagged (3x Flag also cloned), Pichia pastoris GS115, tags kept
T1 sequence (Q9SYX2 1-1029 R517E): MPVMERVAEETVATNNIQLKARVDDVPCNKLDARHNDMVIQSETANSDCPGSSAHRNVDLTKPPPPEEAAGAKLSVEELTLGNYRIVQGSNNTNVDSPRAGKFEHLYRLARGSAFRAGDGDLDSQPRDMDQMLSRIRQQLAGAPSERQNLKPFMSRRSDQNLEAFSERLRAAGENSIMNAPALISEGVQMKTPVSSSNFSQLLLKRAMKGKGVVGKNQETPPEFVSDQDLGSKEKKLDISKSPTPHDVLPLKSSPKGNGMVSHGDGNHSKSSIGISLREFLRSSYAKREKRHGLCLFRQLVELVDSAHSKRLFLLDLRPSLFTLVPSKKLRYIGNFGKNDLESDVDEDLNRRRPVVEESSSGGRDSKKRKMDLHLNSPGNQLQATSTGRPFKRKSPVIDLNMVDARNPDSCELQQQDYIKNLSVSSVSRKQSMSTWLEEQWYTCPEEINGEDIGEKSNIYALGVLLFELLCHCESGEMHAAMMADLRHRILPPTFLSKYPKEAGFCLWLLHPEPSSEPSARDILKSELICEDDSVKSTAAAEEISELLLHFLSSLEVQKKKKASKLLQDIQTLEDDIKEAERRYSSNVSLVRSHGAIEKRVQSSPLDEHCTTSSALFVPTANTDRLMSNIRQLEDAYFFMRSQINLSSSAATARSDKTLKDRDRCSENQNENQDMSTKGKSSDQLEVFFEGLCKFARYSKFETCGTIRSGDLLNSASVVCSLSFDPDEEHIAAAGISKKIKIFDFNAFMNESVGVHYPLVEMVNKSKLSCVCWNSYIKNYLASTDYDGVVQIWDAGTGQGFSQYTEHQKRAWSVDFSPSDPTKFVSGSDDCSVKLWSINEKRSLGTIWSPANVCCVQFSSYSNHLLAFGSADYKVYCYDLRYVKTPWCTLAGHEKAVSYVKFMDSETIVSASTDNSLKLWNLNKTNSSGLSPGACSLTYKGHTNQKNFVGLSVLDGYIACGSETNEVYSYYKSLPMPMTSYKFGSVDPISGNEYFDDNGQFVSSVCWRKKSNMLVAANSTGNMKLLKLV

SPA1-Kin = target: T2, SPA1-Kin (Arabidopsis thaliana, UniProt Q9SYX2); experiment: in vitro autophosphorylation assay, autoradiogram; assay type: biochemical; settings: 10 mM MgCl2, pH 7.5, 28 °C; labelled compound (gamma-32P)
T2 sequence (Q9SYX2 1-545 limits assumed): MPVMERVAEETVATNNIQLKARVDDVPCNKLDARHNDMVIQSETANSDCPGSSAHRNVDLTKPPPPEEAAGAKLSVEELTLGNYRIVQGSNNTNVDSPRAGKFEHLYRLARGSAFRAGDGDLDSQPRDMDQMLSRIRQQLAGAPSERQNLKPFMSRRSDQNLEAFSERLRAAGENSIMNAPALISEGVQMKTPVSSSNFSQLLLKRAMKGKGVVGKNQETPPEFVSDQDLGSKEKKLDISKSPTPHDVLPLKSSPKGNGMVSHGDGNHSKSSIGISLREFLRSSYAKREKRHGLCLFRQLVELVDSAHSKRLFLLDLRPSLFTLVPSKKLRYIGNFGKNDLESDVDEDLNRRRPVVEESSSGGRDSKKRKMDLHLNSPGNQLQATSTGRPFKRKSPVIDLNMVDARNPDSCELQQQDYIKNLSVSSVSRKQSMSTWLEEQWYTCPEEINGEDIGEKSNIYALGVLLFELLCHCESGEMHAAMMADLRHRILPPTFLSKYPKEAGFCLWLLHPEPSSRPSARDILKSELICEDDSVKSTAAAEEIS

[1] = target: T3, strep-tagged full-length mSPA1 (SPA1 R517E) (Arabidopsis, UniProt Q9SYX2 1-1029, R517E); experiment: pull-down; 2 µg GST-PIF1 on GST agarose beads, 1 µg SPA1 or mSPA1; 50 mM Tris pH 7.5, 150 mM NaCl, 1 mM EDTA, 0.1% Tergitol NP-40, 0.5 mM DTT; 2 h at 4 °C; Coomassie staining; settings: both partners purified
T3 construct: SPA1, Arabidopsis, full length, with the kinase-domain point mutation R517E; Same construct as m1 apart from R517E; also called mSPA1-strep; mutant SPA1; source: Pichia pastoris, purified (Strep-Tactin Sepharose); not shown: Strep tag, C-terminal, kept
T3 sequence (looked up): T1 sequence (Q9SYX2 1-1029 R517E)

Molecule: Nc1ncnc2c1ncn2[C@@H]1O[C@H](COP(=O)(O)OP(=O)(O)OP(=O)(O)O)[C@@H](O)[C@H]1O [ATP]
in vitro kinase assay, autoradiogram (full-length SPA1): mSPA1 showed significantly reduced PIF1 phosphorylation compared to the wild type SPA1 | in vitro autophosphorylation assay, autoradiogram (SPA1-Kin): The purified SPA1-Kin domain displayed autophosphorylation activity in a protein concentration-dependent manner

binding result [1]: binds
B1: GST-PIF1-strep (natural protein, Arabidopsis, UniProt Q8GZM7 1-478, looked up)
chain: MHHFVPDFDTDDDYVNNHNSSLNHLPRKSITTMGEDDDLMELLWQNGQVVVQNQRLHTKKPSSSPPKLLPSMDPQQQPSSDQNLFIQEDEMTSWLHYPLRDDDFCSDLLFSAAPTATATATVSQVTAARPPVSSTNESRPPVRNFMNFSRLRGDFNNGRGGESGPLLSKAVVRESTQVSPSATPSAAASESGLTRRTDGTDSSAVAGGGAYNRKGKAVAMTAPAIEITGTSSSVVSKSEIEPEKTNVDDRKRKEREATTTDETESRSEETKQARVSTTSTKRSRAAEVHNLSERKRRDRINERMKALQELIPRCNKSDKASMLDEAIEYMKSLQLQIQMMSMGCGMMPMMYPGMQQYMPHMAMGMGMNQPIPPPSFMPFPNMLAAQRPLPTQTHMAGSGPQYPVHASDPSRVFVPNQQYDPTSGQPQYPAGYTDPYQQFRGLHPTQPPQFQNQATSYPSSSRVSSSKESEDHGNHTTG
notes: source: E. coli BL21(DE3), purified (Strep-Tactin Sepharose); not shown: GST, N-terminal, kept; Strep tag, C-terminal, kept
